{"source": "patent US5869659A", "about": "“Heteroatom-containing cyclopentanopyridyl-oxazolidinones” (Bayer Aktiengesellschaft, priority 1996, dated 1999)", "assay_type_in_all_cases": "cell-based", "key": {"[1]": {"tested_on": "Mycobacterium smegmatis DSM 43061", "experiment": "MIC for rapidly growing mycobacteria by broth microdilution", "details": "Mycolicibacterium smegmatis, DSM43061", "description": "(§1) For rapidly growing mycobacteria, the MIC determination was carried out following the method of broth microdilution described by Swenson [cf. J. M. Swenson, C. Thornberry, U. A. Silcox, Rapidly growing mycobacteria. Testing of suceptibility to 34 antimicrobial agents by broth microdilution. Antimicrobial Agents and Chemotherapy Vol. 22, 186-192 (1982)]. A deviation from this was the brain-heart extract medium treated with 0.1% by volume of Tween 80.\n(§2) The mycobacterial strains used were obtained from the DSM (German Collection of Microorganisms, Braunschweig). They were incubated at 37° C. in a humid chamber.\n(§3) The MICs were read off after 2-4 days when the preparation-free controls had become cloudy as a result of growth."}, "[2]": {"tested_on": "Mycobacterium smegmatis DSM 43465", "experiment": "MIC for rapidly growing mycobacteria by broth microdilution", "details": "Mycolicibacterium smegmatis, DSM43465", "description": "as §1, §2, §3"}, "Klebs. 57 USA": {"tested_on": "Klebs. 57 USA", "experiment": "MIC by serial dilution on Iso-Sensitest agar", "description": "(§4) The minimum inhibitory concentrations (MICs) were determined by serial dilution tests on Iso-Sensitest agar (Oxoid). For each test substance, a number of agar plates were prepared which contained decreasing concentrations of the active compound. The agar plates were inoculates using a multipoint inoculator (Denley). For inoculation, overnight cultures of the pathogenic organisms were used which had previously been diluted such that each inoculation point contained about 10^4 colony-forming particles. The inoculated agar plates were incubated at 37° C., and the microorganism growth was read off after about 20 hours. The MICs (μg/ml) indicates the lowest active compound concentration at which no growth could be detected using the naked eye."}, "Staph. 48N": {"tested_on": "Staph. 48N", "experiment": "MIC by serial dilution on Iso-Sensitest agar", "details": "37° C., about 20 hours", "description": "as §4"}, "Psdm. Bonn": {"tested_on": "Psdm. Bonn", "experiment": "MIC by serial dilution on Iso-Sensitest agar", "description": "as §4"}, "E. coli Neumann": {"tested_on": "E. coli Neumann", "experiment": "MIC by serial dilution on Iso-Sensitest agar", "details": "Escherichia coli", "description": "as §4"}, "Staph. 133": {"tested_on": "Staph. 133", "experiment": "MIC by serial dilution on Iso-Sensitest agar", "details": "37° C., about 20 hours", "description": "as §4"}, "Staph. 9TV": {"tested_on": "Staph. 9TV", "experiment": "MIC by serial dilution on Iso-Sensitest agar", "description": "as §4"}, "Staph. 25701": {"tested_on": "Staph. 25701", "experiment": "MIC by serial dilution on Iso-Sensitest agar", "details": "37° C., about 20 hours", "description": "as §4"}, "[3]": {"details": "DSM 43061, brain-heart extract medium with 0.1% Tween 80, 37° C., 2-4 days, read-out: MIC"}, "[4]": {"details": "DSM 43465, brain-heart extract medium with 0.1% Tween 80, 37° C., 2-4 days, read-out: MIC"}, "[5]": {"details": "Staph. 9TV, 37° C., about 20 hours, read-out: MIC"}, "[6]": {"details": "Klebs. 57 USA, 37° C., about 20 hours, read-out: MIC"}, "[7]": {"details": "Psdm. Bonn, 37° C., about 20 hours, read-out: MIC"}, "[8]": {"details": "E. coli Neumann, 37° C., about 20 hours, read-out: MIC"}}, "note": "Like-named read-outs stand apart in the source and are kept apart here.", "data": [{"compound": "Cn1c(=O)oc2cc(N3CC(CNC(=O)C4CC4)OC3=O)cnc21", "note": "(racemic) [Example 11]", "values": [{"measurement": "MIC", "setting": "[1]; [3]", "value": 8, "unit": "µg/mL"}, {"measurement": "MIC", "setting": "[2]; [4]", "value": 4, "unit": "µg/mL"}, {"measurement": "MIC", "setting": "Klebs. 57 USA; 20 h", "value": "> 64", "unit": "µg/mL"}, {"measurement": "MIC", "setting": "Staph. 48N", "value": 8, "unit": "µg/mL"}, {"measurement": "MIC", "setting": "Psdm. Bonn; 20 h", "value": "> 64", "unit": "µg/mL"}, {"measurement": "MIC", "setting": "E. coli Neumann; 20 h", "value": "> 64", "unit": "µg/mL"}, {"measurement": "MIC", "setting": "Staph. 133", "value": 8, "unit": "µg/mL"}, {"measurement": "MIC", "setting": "Staph. 9TV; [5]", "value": 4, "unit": "µg/mL"}, {"measurement": "MIC", "setting": "Staph. 25701", "value": 8, "unit": "µg/mL"}]}, {"compound": "CCC(=O)NCC1CN(c2cnc3c(c2)oc(=O)n3C)C(=O)O1", "note": "(racemic) [Example 12]", "values": [{"measurement": "MIC", "setting": "[1]", "value": 4, "unit": "µg/mL"}, {"measurement": "MIC", "setting": "[2]", "value": 4, "unit": "µg/mL"}, {"measurement": "MIC", "setting": "Klebs. 57 USA; [6]", "value": "> 64", "unit": "µg/mL"}, {"measurement": "MIC", "setting": "Staph. 48N", "value": 8, "unit": "µg/mL"}, {"measurement": "MIC", "setting": "Psdm. Bonn; [7]", "value": "> 64", "unit": "µg/mL"}, {"measurement": "MIC", "setting": "E. coli Neumann; [8]", "value": "> 64", "unit": "µg/mL"}, {"measurement": "MIC", "setting": "Staph. 133", "value": 8, "unit": "µg/mL"}, {"measurement": "MIC", "setting": "Staph. 9TV; 20 h", "value": 4, "unit": "µg/mL"}, {"measurement": "MIC", "setting": "Staph. 25701", "value": 8, "unit": "µg/mL"}]}, {"compound": "COC(=O)NCC1CN(c2cnc3c(c2)oc(=O)n3C)C(=O)O1", "note": "(racemic) [Example 13]", "values": [{"measurement": "MIC", "setting": "[1]; [3]", "value": 8, "unit": "µg/mL"}, {"measurement": "MIC", "setting": "[2]; [4]", "value": 8, "unit": "µg/mL"}, {"measurement": "MIC", "setting": "Klebs. 57 USA; [6]", "value": "> 64", "unit": "µg/mL"}, {"measurement": "MIC", "setting": "Staph. 48N", "value": 8, "unit": "µg/mL"}, {"measurement": "MIC", "setting": "Psdm. Bonn; [7]", "value": "> 64", "unit": "µg/mL"}, {"measurement": "MIC", "setting": "E. coli Neumann; [8]", "value": "> 64", "unit": "µg/mL"}, {"measurement": "MIC", "setting": "Staph. 133", "value": 8, "unit": "µg/mL"}, {"measurement": "MIC", "setting": "Staph. 9TV; [5]", "value": 4, "unit": "µg/mL"}, {"measurement": "MIC", "setting": "Staph. 25701", "value": 8, "unit": "µg/mL"}]}, {"compound": "CC(=O)NCC1CN(c2cnc3c(c2)oc(=O)n3C)C(=O)O1", "note": "(stereo not shown) [Example 10, 5-Acetylaminomethyl-3-(3-methyloxazolo[4,5-b]-pyridin-2(3H)-on-6yl)oxazolidin-2-one]", "values": [{"measurement": "MIC", "setting": "[1]; [3]", "value": 4, "unit": "µg/mL"}, {"measurement": "MIC", "setting": "[2]; [4]", "value": 4, "unit": "µg/mL"}, {"measurement": "MIC", "setting": "Klebs. 57 USA; 20 h", "value": "> 64", "unit": "µg/mL"}, {"measurement": "MIC", "setting": "Staph. 48N", "value": 8, "unit": "µg/mL"}, {"measurement": "MIC", "setting": "Psdm. Bonn; 20 h", "value": "> 64", "unit": "µg/mL"}, {"measurement": "MIC", "setting": "E. coli Neumann; 20 h", "value": "> 64", "unit": "µg/mL"}, {"measurement": "MIC", "setting": "Staph. 9TV; [5]", "value": 4, "unit": "µg/mL"}, {"measurement": "MIC", "setting": "Staph. 25701", "value": 8, "unit": "µg/mL"}]}, {"compound": "CC(=O)NC[C@H]1CN(c2ccc3nc(C)sc3n2)C(=O)O1", "note": "[Example 14]", "values": [{"measurement": "MIC", "setting": "Klebs. 57 USA; [6]", "value": "> 64", "unit": "µg/mL"}, {"measurement": "MIC", "setting": "Staph. 48N", "value": 8, "unit": "µg/mL"}, {"measurement": "MIC", "setting": "Psdm. Bonn; [7]", "value": "> 64", "unit": "µg/mL"}, {"measurement": "MIC", "setting": "E. coli Neumann; [8]", "value": "> 64", "unit": "µg/mL"}, {"measurement": "MIC", "setting": "Staph. 133", "value": 4, "unit": "µg/mL"}, {"measurement": "MIC", "setting": "Staph. 9TV; [5]", "value": 2, "unit": "µg/mL"}, {"measurement": "MIC", "setting": "Staph. 25701", "value": 4, "unit": "µg/mL"}]}, {"compound": "NNC(=O)c1ccncc1", "note": "[Isoniazide, reference compound]", "values": [{"measurement": "MIC", "setting": "[1]; [3]", "value": 4, "unit": "µg/mL"}, {"measurement": "MIC", "setting": "[2]; [4]", "value": 1, "unit": "µg/mL"}]}, {"compound": "[H]/N=C(/N)N[C@H]1[C@H](O)[C@@H](O)[C@H](O[C@@H]2O[C@@H](C)[C@](O)(C=O)[C@H]2O[C@@H]2O[C@@H](CO)[C@H](O)[C@@H](O)[C@@H]2NC)[C@@H](N/C(N)=N\\[H])[C@@H]1O", "note": "[Streptomycin, reference compound]", "values": [{"measurement": "MIC", "setting": "[1]", "value": 4, "unit": "µg/mL"}, {"measurement": "MIC", "setting": "[2]", "value": 4, "unit": "µg/mL"}]}]}
